Measured values taken from US8574563B2 (Bristol-Myers Squibb Company, priority 2006, dated 2013).

System: HCV 1b-377-neo replicon cells
Assay: HCV replicon assay, HCV 1b-377-neo replicon cells (1b FRET)
Type: cell-based, Hepatitis C virus genotype 1b
Conditions: HCV 1b-377-neo replicon cells; HCV 1b genotype; read-out: EC50 range against HCV 1b (Table 2, Range)
Method in brief: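 Compounds were tested in genotype 1b subgenomic replicon cells carrying a neomycin marker, alongside a matched replicon line with an NS5A Y2065H substitution that confers resistance to a reference NS5A inhibitor.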

Row | Compound | EC50 [nM]
1 | CN(C)[C@@H](C(=O)N1CCC[C@H]1c1ncc(-c2ccc(-c3ccc(-c4cnc([C@@H]5CCCN5C(=O)C5CCN(C(=O)OC(C)(C)C)CC5)[nH]4)cc3)cc2)[nH]1)c1ccccc1 [Example 94-34, ′tert-butyl 4-(((2S)-2-(5-(4′-(2-((2S)-1-((2R)-2-(dimethylamino)-2-phenylacetyl)-2-pyrrolidinyl)-1H-imidazol-5-yl)-4-biphenylyl)-1H-imidazol-2-yl)-1-pyrrolidinyl)carbonyl)-1-piperidinecarboxylate] | 1 to 99

Same assay, conditions: Hepatitis C virus, HCV 1b-377-neo replicon cells; HCV 1b genotype; read-out: EC50 range against HCV 1b (Table 2, Range)

Row | Compound | EC50 [nM]
2 | COC(=O)N[C@@H](C(=O)N1CCC[C@H]1c1ncc(-c2ccc(-c3ccc(-c4cnc([C@@H]5CCCN5C(=O)C5CCN(C)CC5)[nH]4)cc3)cc2)[nH]1)c1ccccc1 [Example 44, methyl ((1R)-2-((2S)-2-(5-(4′-(2-((2S)-1-((1-methyl-4-piperidinyl)carbonyl)-2-pyrrolidinyl)-1H-imidazol-5-yl)-4-biphenylyl)-1H-imidazol-2-yl)-1-pyrrolidinyl)-2-oxo-1-phenylethyl)carbamate] | 0.001 to 0.999
3 | COC(=O)N[C@@H](C)C(=O)N1CCC[C@H]1c1ncc(-c2ccc(-c3ccc(-c4cnc([C@@H]5CCCN5C(=O)[C@H](Cc5cn(C)cn5)NC(=O)OC)[nH]4)cc3)cc2)[nH]1 [cj-41, methyl ((1S)-2-((2S)-2-(5-(4′-(2-((2S)-1-(N-(methoxycarbonyl)-L-alanyl)-2-pyrrolidinyl)-1H-imidazol-5-yl)-4-biphenylyl)-1H-imidazol-2-yl)-1-pyrrolidinyl)-1-((1-methyl-1H-imidazol-4-yl)methyl)-2-oxoethyl)carbamate] | 0.001 to 0.999
4 | CC(C)[C@H](Nc1ncccn1)C(=O)N1[C@@H]2C[C@@H]2C[C@H]1c1ncc(-c2ccc(-c3ccc(-c4cnc([C@@H]5C[C@H]6C[C@H]6N5C(=O)[C@@H](Nc5ncccn5)C(C)C)[nH]4)cc3)cc2)[nH]1 [Example M144, N,N′-(4,4′-biphenyldiylbis(1H-imidazole-4,2-diyl(1R,3S,5R)-2-azabicyclo[3.1.0]hexane-3,2-diyl((2S)-3-methyl-1-oxo-1,2-butanediyl)))di(2-pyrimidinamine)] | 0.001 to 0.999
5 | CO[C@@H](C(=O)N1CCC[C@H]1c1ncc(-c2ccc(-c3ccc(-c4cnc([C@@H]5CCCN5C(=O)[C@@H](c5ccccc5)N5CCCCC5)[nH]4)cc3)cc2)[nH]1)c1ccccc1 [Example 107-19, 1-((1R)-2-((2S)-2-(5-(4′-(2-((2S)-1-((2R)-2-methoxy-2-phenylacetyl)-2-pyrrolidinyl)-1H-imidazol-5-yl)-4-biphenylyl)-1H-imidazol-2-yl)-1-pyrrolidinyl)-2-oxo-1-phenylethyl) piperidine] | 0.001 to 0.999
6 | COC(=O)N[C@H](C(=O)N1CCC[C@H]1c1ncc(-c2ccc(-c3ccc(-c4cnc([C@@H]5CCCN5C(=O)CNC(C)C)[nH]4)cc3)cc2)[nH]1)C(C)C [LS25, methyl ((1S)-1-(((2S)-2-(5-(4′-(2-((2S)-1-(N-isopropylglycyl)-2-pyrrolidinyl)-1H-imidazol-5-yl)-4-biphenylyl)-1H-imidazol-2-yl)-1-pyrrolidinyl)carbonyl)-2-methylpropyl)carbamate] | 0.001 to 0.999
7 | CCN(CC)[C@H](C)C(=O)N1CCC[C@H]1c1ncc(-c2ccc(-c3ccc(-c4cnc([C@@H]5CCCN5C(=O)[C@H](C)NC(=O)OC)[nH]4)cc3)cc2)[nH]1 [Example M96, methyl ((1S)-2-((2S)-2-(5-(4′-(2-((2S)-1-(N,N-diethyl-D-alanyl)-2-pyrrolidinyl)-1H-imidazol-5-yl)-4-biphenylyl)-1H-imidazol-2-yl)-1-pyrrolidinyl)-1-methyl-2-oxoethyl)carbamate] | 100 to 999
8 | COC(=O)N[C@H](C(=O)N1CCCC1c1ncc(-c2ccc(-c3ccc(-c4cnc([C@]5(C)CCCN5C(=O)[C@@H](NC(=O)OC)[C@@H](C)OC)[nH]4)cc3)cc2)[nH]1)[C@@H](C)OC (stereo partly drawn) | 0.001 to 0.999
9 | O=C([C@@H](c1ccccc1)N1CCCCC1)N1CC(F)(F)C[C@H]1c1nc(-c2ccc(-c3ccc(-c4cnc([C@@H]5CC(F)(F)CN5C(=O)[C@@H](c5ccccc5)N5CCCCC5)[nH]4)cc3)cc2)c[nH]1 [Example 24-8, 1,1′-(4,4′-biphenyldiylbis(1H-imidazol-4,2-diyl((2S)-4,4-difluoro-2,1-pyrrolidinediyl)((1R)-2-oxo-1-phenyl-2,1-ethanediyl)))dipiperidine] | 0.001 to 0.999
10 | COC(=O)N[C@H](C(=O)N1CCC[C@@H]1c1ncc(-c2ccc(-c3ccc(-c4cnc([C@@H]5CCCN5C(=O)[C@@H](NC(=O)OC)C(C)C)[nH]4)cc3)cc2)[nH]1)C(C)C [Example M28-2, methyl ((1S)-1-(((2S)-2-(5-(4′-(2-((2R)-1-((2S)-2-((methoxycarbonyl)amino)-3-methylbutanoyl)-2-pyrrolidinyl)-1H-imidazol-5-yl)-4-biphenylyl)-1H-imidazol-2-yl)-1-pyrrolidinyl)carbonyl)-2-methylpropyl)carbamate] | 100 to 999
11 | COC(=O)N[C@@H](C(=O)N1CCC[C@H]1c1ncc(-c2ccc(-c3ccc(-c4cnc([C@@H]5CCCN5C(=O)CNC(=O)c5ccccc5)[nH]4)cc3)cc2)[nH]1)c1ccccc1 [Example 84-7, methyl ((1R)-2-((2S)-2-(5-(4′-(2-((2S)-1-(N-benzoylglycyl)-2-pyrrolidinyl)-1H-imidazol-5-yl)-4-biphenylyl)-1H-imidazol-2-yl)-1-pyrrolidinyl)-2-oxo-1-phenylethyl)carbamate] | 1 to 99
12 | COCC[C@H](NC(=O)OC)C(=O)N1CCC[C@H]1c1ncc(-c2ccc(-c3ccc(-c4cnc([C@@H]5CCCN5C(=O)[C@H](C)NC(=O)OC)[nH]4)cc3)cc2)[nH]1 [cj-120, methyl ((1S)-3-methoxy-1-(((2S)-2-(5-(4′-(2-((2S)-1-(N-(methoxycarbonyl)-L-alanyl)-2-pyrrolidinyl)-1H-imidazol-5-yl)-4-biphenylyl)-1H-imidazol-2-yl)-1-pyrrolidinyl)carbonyl)propyl)carbamate] | 0.001 to 0.999
13 | CC(C)(C)OC(=O)N1CCC(C(=O)N2CCC[C@H]2c2ncc(-c3ccc(-c4ccc(-c5cnc([C@@H]6CCCN6C(=O)[C@@H](c6ccccc6)N6CCCCC6)[nH]5)cc4)cc3)[nH]2)CC1 [Example 107-9, tert-butyl 4-(((2S)-2-(5-(4′-(2-((2S)-1-((2R)-2-phenyl-2-(1-piperidinyl)acetyl)-2-pyrrolidinyl)-1H-imidazol-5-yl)-4-biphenylyl)-1H-imidazol-2-yl)-1-pyrrolidinyl)carbonyl)-1-piperidinecarboxylate] | 0.001 to 0.999
14 | COC(=O)N[C@@H](C(=O)N1CCC[C@H]1c1ncc(-c2ccc(-c3ccc(-c4cnc([C@@H]5CCCN5C(=O)[C@H]5CCCO5)[nH]4)cc3)cc2)[nH]1)c1ccccc1Cl [Example 107-39, methyl ((1R)-1-(2-chlorophenyl)-2-oxo-2-((2S)-2-(5-(4′-(2-((2S)-1-((2R)-tetrahydro-2-furanylcarbonyl)-2-pyrrolidinyl)-1H-imidazol-5-yl)-4-biphenylyl)-1H-imidazol-2-yl)-1-pyrrolidinyl)ethyl) carbamate] | 0.001 to 0.999
15 | COC(=O)N[C@@H](C)C(=O)N1CCC[C@H]1c1ncc(-c2ccc(-c3ccc(-c4cnc([C@@H]5CCCN5C(=O)[C@@H](NC(=O)OC)C(C)(C)C)[nH]4)cc3)cc2)[nH]1 [Example M95, methyl ((1S)-1-(((2S)-2-(5-(4′-(2-((2S)-1-(N-(methoxycarbonyl)-L-alanyl)-2-pyrrolidinyl)-1H-imidazol-5-yl)-4-biphenylyl)-1H-imidazol-2-yl)-1-pyrrolidinyl)carbonyl)-2,2-dimethylpropyl)carbamate] | 1 to 99
